pIC50: −log10 of the molar value.
Tests used:
HeLa cells = experiment: alamarBlue cell growth assay, candidate KIF14 modulators in HeLa cells; format: cell-based, human; conditions: 72 hours; for pIC50: Homo sapiens, HeLa, compounds 1 and 2: submaximal inhibition
Procedure: alamarBlue™ Assay for Cell Growth: The alamarBlue™ assay is a measure of cellular respiration and is used as a measure of live cell number. The internal environment of the proliferating cell is more reduced than that of non-proliferating cells. Specifically, the ratios of NADPH/NADP, FADH/FAD, FMNH/FMN, and NADH/NAF increase during proliferation. alamarBlue™ can be reduced by these metabolic intermediates and, therefore, can be used to monitor cell proliferation.
HeLa cells were plated at a density of 2000/cells per well in 10% DMEM in a 96-well plate (Costar, Cat. No. 3606) 20 hours prior to treatment with a KIF14 inhibitory compound in a series of dilutions (20 microliters of 11-fold concentrated solution of the compound added to 200 microliters of media). The cells were incubated at 37° C. for 72 hours prior to replacement of 100 microliters per well of the media with 10% (vol/vol) alamarBlue™ reagent. After incubation for 2 hours at 37° C., the plates were read on a spectrofluorimeter SpectroMax Gemini (excitation 544 nm, emission 590 nm). The background value (averaged from wells with no cells) was subtracted from each reading.

CENP-E (SEQ ID NO:19) = target: T1, CENP-E (SEQ ID NO:19) (Homo sapiens, UniProt Q02224); experiment: CENP-E motor domain ATPase assay; format: biochemical; conditions: read-out: uKHC, nKHC, CENP-E, MKLP-1, KIF1B, MCAK ATPase IC50
T1 construct: His6 (printed only as 'H')
T1 sequence (Q02224 with tags, fused parts or gaps): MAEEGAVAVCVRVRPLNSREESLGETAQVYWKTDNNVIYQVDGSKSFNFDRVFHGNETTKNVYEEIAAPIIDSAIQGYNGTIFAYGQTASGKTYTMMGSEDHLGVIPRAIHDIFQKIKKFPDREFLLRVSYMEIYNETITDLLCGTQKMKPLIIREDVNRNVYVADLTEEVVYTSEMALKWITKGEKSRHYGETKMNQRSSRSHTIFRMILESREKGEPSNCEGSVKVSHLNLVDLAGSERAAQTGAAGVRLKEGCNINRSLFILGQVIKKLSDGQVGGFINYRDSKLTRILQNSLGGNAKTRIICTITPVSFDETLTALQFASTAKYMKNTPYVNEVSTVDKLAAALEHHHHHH

uKHC (SEQ ID NO:17) = target: T2, uKHC (SEQ ID NO:17) (Homo sapiens, UniProt P33176); experiment: uKHC motor domain ATPase assay; format: biochemical; conditions: read-out: uKHC, nKHC, CENP-E, MKLP-1, KIF1B, MCAK ATPase IC50
T2 construct: His6 (printed only as 'H')
T2 sequence (P33176 with tags, fused parts or gaps): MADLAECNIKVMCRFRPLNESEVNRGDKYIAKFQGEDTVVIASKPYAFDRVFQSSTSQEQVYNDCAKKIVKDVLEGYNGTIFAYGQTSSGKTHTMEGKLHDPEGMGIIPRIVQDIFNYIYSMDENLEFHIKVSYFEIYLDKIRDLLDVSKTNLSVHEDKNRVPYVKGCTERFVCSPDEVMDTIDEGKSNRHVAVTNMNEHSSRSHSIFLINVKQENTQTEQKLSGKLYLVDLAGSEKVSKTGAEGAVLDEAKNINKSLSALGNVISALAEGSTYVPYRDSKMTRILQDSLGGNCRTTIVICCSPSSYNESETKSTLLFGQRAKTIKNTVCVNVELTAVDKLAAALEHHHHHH

KIF1B (SEQ ID NO:21) = target: T3, KIF1B (SEQ ID NO:21) (Homo sapiens, UniProt O60333); experiment: KIF1B motor domain ATPase assay; format: biochemical; conditions: read-out: uKHC, nKHC, CENP-E, MKLP-1, KIF1B, MCAK ATPase IC50
T3 construct: His6 (printed only as 'H')
T3 sequence (O60333 with tags, fused parts or gaps): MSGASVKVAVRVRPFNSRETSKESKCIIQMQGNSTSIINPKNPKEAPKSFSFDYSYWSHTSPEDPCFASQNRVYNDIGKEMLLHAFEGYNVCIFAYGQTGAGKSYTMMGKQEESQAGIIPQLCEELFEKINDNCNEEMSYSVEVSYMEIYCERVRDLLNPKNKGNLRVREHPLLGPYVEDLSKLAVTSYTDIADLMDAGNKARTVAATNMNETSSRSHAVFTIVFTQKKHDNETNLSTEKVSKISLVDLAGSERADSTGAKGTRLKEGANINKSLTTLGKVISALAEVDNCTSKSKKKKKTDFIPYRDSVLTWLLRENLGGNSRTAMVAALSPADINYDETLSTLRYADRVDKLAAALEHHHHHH

KIF3A (SEQ ID NO:16) = target: T4, KIF3A (SEQ ID NO:16) (Homo sapiens, UniProt Q9Y496); experiment: KIF3A motor domain ATPase assay; format: biochemical; conditions: n = 2
T4 construct: His6 (printed only as 'H')
T4 sequence (Q9Y496 with tags, fused parts or gaps): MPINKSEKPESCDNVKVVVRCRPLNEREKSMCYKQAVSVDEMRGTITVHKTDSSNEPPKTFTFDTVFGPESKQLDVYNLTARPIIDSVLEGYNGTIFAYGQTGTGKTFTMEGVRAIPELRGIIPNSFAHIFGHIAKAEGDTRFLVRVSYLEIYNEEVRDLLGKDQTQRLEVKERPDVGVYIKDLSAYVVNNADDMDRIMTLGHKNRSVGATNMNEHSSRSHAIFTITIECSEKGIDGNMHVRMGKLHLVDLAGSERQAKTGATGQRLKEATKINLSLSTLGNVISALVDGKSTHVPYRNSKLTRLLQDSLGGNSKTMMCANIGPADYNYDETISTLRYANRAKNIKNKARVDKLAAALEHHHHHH

nKHC (SEQ ID NO:18) = target: T5, nKHC (SEQ ID NO:18) (Homo sapiens, UniProt Q12840); experiment: nKHC motor domain ATPase assay; format: biochemical; conditions: read-out: uKHC, nKHC, CENP-E, MKLP-1, KIF1B, MCAK ATPase IC50
T5 construct: His6 (printed only as 'H')
T5 sequence (Q12840 with tags, fused parts or gaps): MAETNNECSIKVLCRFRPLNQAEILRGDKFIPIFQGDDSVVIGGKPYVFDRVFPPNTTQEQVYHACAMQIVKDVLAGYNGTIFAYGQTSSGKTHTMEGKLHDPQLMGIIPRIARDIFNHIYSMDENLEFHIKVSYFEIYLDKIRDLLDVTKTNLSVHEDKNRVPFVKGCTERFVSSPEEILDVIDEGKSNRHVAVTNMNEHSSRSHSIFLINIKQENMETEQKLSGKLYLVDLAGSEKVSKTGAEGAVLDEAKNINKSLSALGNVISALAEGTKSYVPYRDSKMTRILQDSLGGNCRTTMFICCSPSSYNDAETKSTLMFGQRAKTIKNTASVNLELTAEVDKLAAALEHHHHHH

KSP (SEQ ID NO:15) = target: T6, KSP (SEQ ID NO:15) (Homo sapiens, UniProt P52732); experiment: KSP motor domain ATPase assay; format: biochemical; conditions: n = 2
T6 construct: His6 (printed only as 'H')
T6 sequence (P52732 with tags, fused parts or gaps): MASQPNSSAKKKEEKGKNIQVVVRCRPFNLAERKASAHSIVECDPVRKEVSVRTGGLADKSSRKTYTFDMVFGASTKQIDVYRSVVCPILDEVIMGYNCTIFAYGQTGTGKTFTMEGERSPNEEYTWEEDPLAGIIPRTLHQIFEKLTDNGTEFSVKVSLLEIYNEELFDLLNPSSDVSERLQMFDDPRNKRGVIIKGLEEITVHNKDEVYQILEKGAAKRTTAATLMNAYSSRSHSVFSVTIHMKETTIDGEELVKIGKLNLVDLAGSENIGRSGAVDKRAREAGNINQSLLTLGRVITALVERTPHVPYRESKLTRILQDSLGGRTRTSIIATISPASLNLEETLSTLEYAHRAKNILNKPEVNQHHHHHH

| Compound | pIC50 (HeLa cells) | Growth Inhibition in HeLa Cells (HeLa cells; [Compound] 19.5 nm) [%] | Growth Inhibition in HeLa Cells (HeLa cells; [Compound] 39.1 nm) [%] | Growth Inhibition in HeLa Cells (HeLa cells; [Compound] 78.1 nm) [%] | Growth Inhibition in HeLa Cells (HeLa cells; [Compound] 156.2 nm) [%] | Growth Inhibition in HeLa Cells (HeLa cells; [Compound] 312.5 nm) [%] | Growth Inhibition in HeLa Cells (HeLa cells; [Compound] 625 nm) [%] | Growth Inhibition in HeLa Cells (HeLa cells; [Compound] 1250 nm) [%] | Growth Inhibition in HeLa Cells (HeLa cells; [Compound] 2500 nm) [%] | Growth Inhibition in HeLa Cells (HeLa cells; [Compound] 5000 nm) [%] | Growth Inhibition in HeLa Cells (HeLa cells; [Compound] 10000 nm) [%] | pIC50 (CENP-E (SEQ ID NO:19)) | pIC50 (uKHC (SEQ ID NO:17)) | pIC50 (KIF1B (SEQ ID NO:21)) | pIC50 (KIF3A (SEQ ID NO:16)) | pIC50 (nKHC (SEQ ID NO:18)) | pIC50 (KSP (SEQ ID NO:15)) |
| --- | --- | --- | --- | --- | --- | --- | --- | --- | --- | --- | --- | --- | --- | --- | --- | --- | --- |
| NC(=S)N/N=C\c1ccc(-c2ccccc2)cc1 [compound 1, 1,1′-biphenyl-4-carbaldehyde thiosemicarbazone] | 6.00 | −3.58 | −4.74 | −2.50 | 5.29 | 10.32 | 12.76 | 19.73 | 51.68 | 48.18 | 40.98 | < 4.40 | < 4.40 | < 4.40 | 6.20 | < 4.40 | < 4.40 |
| CC(C)c1ccc(/C=N/NC(N)=S)cc1 [compound 2, 4-isopropylbenzaldehyde thiosemicarbazone] |  |  |  |  |  |  |  |  |  |  |  | < 4.40 | < 4.40 | < 4.40 | 4.51 | < 4.40 | 4.60 |
| NC(=S)N/N=C/c1ccc(C2CCCCC2)cc1 [compound 3, 4-cyclohexylbenzaldehyde thiosemicarbazone] | 5.55 | 8.97 | 5.97 | 8.16 | 6.91 | 8.88 | 12.32 | 7.53 | 44.36 | 83.84 | 95.02 | < 4.40 | < 4.40 | < 4.40 | 6.16 | < 4.40 | 5.82 |
| CC(C)c1ccc(/C=N/NC(N)=S)cc1[N+](=O)[O-] [compound 4, 4-isopropyl-3-nitrobenzaldehyde thiosemicarbazone] |  |  |  |  |  |  |  |  |  |  |  | < 4.40 | < 4.40 | < 4.40 | 5.81 | < 4.40 | 5.96 |

— US20070134660A1, “Methods for identifying modulators of kinesin activity” (ROSETTA INPHARMATICS LLC, priority 2003, published 2007)
